Assay results from ChEMBL document CHEMBL3862033 (J Med Chem, 2016).
The source made the active and inactive calls. No cut-off for these calls is given here.

Legend:
[1] = target: 5-hydroxytryptamine receptor 1D (Homo sapiens) (UniProt P28221); test: Displacement of [3H]5-CT from human 5-HT1D receptor expressed in HEK-T cell membranes at 10 uM incubated for 90 mins under dark condition by microbeta scintillation counting method relative to control
[2] = target: 5-hydroxytryptamine receptor 1E (Homo sapiens) (UniProt P28566); test: Displacement of [3H]5-HT from human 5-HT1E receptor expressed in HEK cell membranes at 10 uM incubated for 90 mins under dark condition by microbeta scintillation counting method relative to control; settings: HEK293
[3] = target: Adenosine receptor A2a (Homo sapiens, UniProt P29274); test: Displacement of [3 H]2-[p-(2-carboxyethyl)phenyl-ethylamino]-5'-N-ethylcarboxamidoadenosine from recombinant human adenosine receptor A2A expressed in HEK293 cell membranes at 10 uM after 60 mins by liquid scintillation counting method relative to control
[4] = target: T1, 5-hydroxytryptamine receptor 2B (Homo sapiens, UniProt P41595); settings: HEK293, at 10 µM
[5] = target: T2, 5-hydroxytryptamine receptor 2C (Homo sapiens) (UniProt P28335); test: Displacement of [3H]mesulergine from human 5-HT2CR expressed in Flp-In HEK cell membranes at 10 uM incubated for 90 mins under dark condition by microbeta scintillation counting method relative to control; settings: HEK293
T2 sequence (whole entry): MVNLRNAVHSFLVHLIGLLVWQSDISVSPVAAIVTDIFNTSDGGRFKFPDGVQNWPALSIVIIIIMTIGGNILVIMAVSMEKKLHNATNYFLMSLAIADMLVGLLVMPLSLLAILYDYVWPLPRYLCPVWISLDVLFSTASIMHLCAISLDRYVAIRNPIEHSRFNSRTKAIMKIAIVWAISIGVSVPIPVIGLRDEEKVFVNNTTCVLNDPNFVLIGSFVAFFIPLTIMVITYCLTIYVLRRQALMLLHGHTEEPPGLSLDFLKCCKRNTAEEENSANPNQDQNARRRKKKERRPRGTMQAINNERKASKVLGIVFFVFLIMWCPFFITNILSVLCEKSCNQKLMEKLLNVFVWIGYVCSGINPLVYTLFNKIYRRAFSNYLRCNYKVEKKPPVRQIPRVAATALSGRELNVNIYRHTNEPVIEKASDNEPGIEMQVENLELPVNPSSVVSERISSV

[6] = target: T3, 5-hydroxytryptamine receptor 2A (Homo sapiens, UniProt P28223); test: Displacement of [3H]ketanserin from human 5-HT2A receptor expressed in HEK-T cell membranes at 10 uM incubated for 90 mins under dark condition by microbeta scintillation counting method relative to control
[7] = target: 5-hydroxytryptamine receptor 5A (Homo sapiens) (UniProt P47898); test: Displacement of [3H]LSD from human 5-HT5A receptor expressed in Flp-In-CHO cell membranes incubated for 90 mins under dark condition by microbeta scintillation counting method relative to control; set-up: concentration or dose not given beside the values
[8] = target: T1, 5-hydroxytryptamine receptor 2B; test: biochemical; type: cell-based, HEK293
[9] = target: T4, 5-hydroxytryptamine receptor 3A (Homo sapiens) (UniProt P46098); test: Displacement of [3H]GR65630 from human 5-HT3 receptor expressed in HEK-T cell membranes at 10 uM incubated for 90 mins under dark condition by microbeta scintillation counting method relative to control
T4 sequence (whole entry): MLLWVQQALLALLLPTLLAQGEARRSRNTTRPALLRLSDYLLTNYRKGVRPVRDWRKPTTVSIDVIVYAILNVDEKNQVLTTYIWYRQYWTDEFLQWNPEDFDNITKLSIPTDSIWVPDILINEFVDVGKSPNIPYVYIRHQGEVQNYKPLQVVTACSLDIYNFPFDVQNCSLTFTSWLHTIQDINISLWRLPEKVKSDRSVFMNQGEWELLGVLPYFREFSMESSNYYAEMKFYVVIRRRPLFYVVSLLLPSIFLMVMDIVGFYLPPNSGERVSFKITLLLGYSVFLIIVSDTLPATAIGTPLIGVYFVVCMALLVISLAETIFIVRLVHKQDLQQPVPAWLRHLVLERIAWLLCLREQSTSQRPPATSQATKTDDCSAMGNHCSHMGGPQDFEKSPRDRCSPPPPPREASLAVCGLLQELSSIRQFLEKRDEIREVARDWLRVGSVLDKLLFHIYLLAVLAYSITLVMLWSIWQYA

[10] = target: T5, 5-hydroxytryptamine receptor 1A (Homo sapiens) (UniProt P08908); test: Displacement of [3H]WAY100635 from human 5-HT1AR expressed in CHO cell membranes at 10 uM incubated for 90 mins under dark condition by microbeta scintillation counting method relative to control
T5 sequence (whole entry): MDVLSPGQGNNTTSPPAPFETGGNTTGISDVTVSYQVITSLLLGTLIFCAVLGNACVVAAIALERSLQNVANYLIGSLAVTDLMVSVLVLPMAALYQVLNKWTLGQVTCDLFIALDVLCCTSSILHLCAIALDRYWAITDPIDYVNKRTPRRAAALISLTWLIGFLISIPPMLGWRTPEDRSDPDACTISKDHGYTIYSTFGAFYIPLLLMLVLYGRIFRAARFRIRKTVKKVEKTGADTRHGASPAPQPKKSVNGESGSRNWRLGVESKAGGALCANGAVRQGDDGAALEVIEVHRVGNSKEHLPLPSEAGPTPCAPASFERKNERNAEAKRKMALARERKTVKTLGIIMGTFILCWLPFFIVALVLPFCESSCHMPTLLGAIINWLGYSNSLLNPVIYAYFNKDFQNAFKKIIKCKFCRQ

[11] = target: T6, Adenosine receptor A1 (Homo sapiens) (UniProt P30542); test: Displacement of [3H]N6-phenylisopropyladenosine from recombinant human A1AR expressed in CHO cell membranes at 10 uM after 60 mins by liquid scintillation counting method relative to control
T6 sequence (whole entry): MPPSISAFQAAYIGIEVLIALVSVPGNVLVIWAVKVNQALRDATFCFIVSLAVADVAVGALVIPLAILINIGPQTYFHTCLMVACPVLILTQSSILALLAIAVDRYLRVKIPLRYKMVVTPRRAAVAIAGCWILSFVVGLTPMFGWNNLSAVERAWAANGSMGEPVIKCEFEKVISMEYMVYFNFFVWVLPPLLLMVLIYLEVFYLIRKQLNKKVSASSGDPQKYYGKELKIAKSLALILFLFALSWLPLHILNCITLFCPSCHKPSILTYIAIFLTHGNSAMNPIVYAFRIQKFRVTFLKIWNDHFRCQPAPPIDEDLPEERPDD

[12] = target: 5-hydroxytryptamine receptor 7 (Homo sapiens) (UniProt P34969); test: Displacement of [3H]LSD from human 5-HT7A receptor expressed in HEK cell membranes at 10 uM incubated for 90 mins under dark condition by microbeta scintillation counting method relative to control; settings: HEK293
[13] = target: T3, 5-hydroxytryptamine receptor 2A; test: Displacement of [3H]ketanserin from human 5-HT2A receptor expressed in HEK-T cell membranes incubated for 90 mins under dark condition by microbeta scintillation counting method
[14] = target: 5-hydroxytryptamine receptor 6 (Homo sapiens) (UniProt P50406); test: Displacement of [3H]LSD from human 5-HT6 receptor expressed in HEK cell membranes at 10 uM incubated for 90 mins under dark condition by microbeta scintillation counting method relative to control; settings: HEK293
[15] = target: 5-hydroxytryptamine receptor 4 (Homo sapiens) (UniProt Q13639); test: Displacement of [3H]GR113808 from human 5-HT4 receptor at 10 uM incubated for 90 mins under dark condition by microbeta scintillation counting method relative to control
[16] = target: 5-hydroxytryptamine receptor 1B (Homo sapiens) (UniProt P28222); test: Displacement of [3H]5-CT from human 5-HT1BR expressed in HEK cell membranes at 10 uM incubated for 90 mins under dark condition by microbeta scintillation counting method relative to control; settings: HEK293
[17] = target: T7, 5-hydroxytryptamine receptor 2C (Homo sapiens, UniProt P28335); test: Displacement of [3H]mesulergine from human 5-HT2CR expressed in Flp-In HEK cell membranes incubated for 90 mins under dark condition by microbeta scintillation counting method; set-up: species or system HEK293
T7 sequence (P28335 whole entry): T2 sequence (whole entry)

[18] = target: T8, Adenosine receptor A3 (Homo sapiens, UniProt P0DMS8); test: Displacement of [125l]N 6-(4-amino-3-iodobenzyl)adenosine-5'-N-methyluronamide from recombinant human A3AR expressed in CHO cell membranes after 60 mins by gamma counting method
T8 sequence (P0DMS8 whole entry): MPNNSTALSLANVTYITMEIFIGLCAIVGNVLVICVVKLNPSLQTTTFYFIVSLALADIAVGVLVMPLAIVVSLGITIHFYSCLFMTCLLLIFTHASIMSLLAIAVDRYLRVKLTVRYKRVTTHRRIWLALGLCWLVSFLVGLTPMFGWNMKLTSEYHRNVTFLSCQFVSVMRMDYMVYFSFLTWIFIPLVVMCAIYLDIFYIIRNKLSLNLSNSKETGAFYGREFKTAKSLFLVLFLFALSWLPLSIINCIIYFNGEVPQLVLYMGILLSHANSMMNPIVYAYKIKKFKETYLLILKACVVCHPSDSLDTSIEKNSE

[19] = target: T9, Adenosine receptor A1 (Homo sapiens, UniProt P30542); test: Displacement of [3H]N6-phenylisopropyladenosine from recombinant human A1AR expressed in CHO cell membranes after 60 mins by liquid scintillation counting method
T9 sequence (P30542 whole entry): T6 sequence (whole entry)

5-hydroxytryptamine receptor 1E (Homo sapiens), sequence (P28566 whole entry): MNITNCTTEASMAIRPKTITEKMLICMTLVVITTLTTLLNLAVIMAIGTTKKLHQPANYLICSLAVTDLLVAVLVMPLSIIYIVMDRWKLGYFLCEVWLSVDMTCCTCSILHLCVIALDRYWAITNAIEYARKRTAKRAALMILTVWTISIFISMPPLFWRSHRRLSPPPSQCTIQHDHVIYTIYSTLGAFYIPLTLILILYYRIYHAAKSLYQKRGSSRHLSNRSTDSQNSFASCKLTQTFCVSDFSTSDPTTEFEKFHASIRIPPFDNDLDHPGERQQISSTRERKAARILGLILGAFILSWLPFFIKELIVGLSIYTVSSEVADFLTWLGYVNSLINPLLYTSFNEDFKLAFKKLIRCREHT
Adenosine receptor A2a, sequence (P29274 whole entry): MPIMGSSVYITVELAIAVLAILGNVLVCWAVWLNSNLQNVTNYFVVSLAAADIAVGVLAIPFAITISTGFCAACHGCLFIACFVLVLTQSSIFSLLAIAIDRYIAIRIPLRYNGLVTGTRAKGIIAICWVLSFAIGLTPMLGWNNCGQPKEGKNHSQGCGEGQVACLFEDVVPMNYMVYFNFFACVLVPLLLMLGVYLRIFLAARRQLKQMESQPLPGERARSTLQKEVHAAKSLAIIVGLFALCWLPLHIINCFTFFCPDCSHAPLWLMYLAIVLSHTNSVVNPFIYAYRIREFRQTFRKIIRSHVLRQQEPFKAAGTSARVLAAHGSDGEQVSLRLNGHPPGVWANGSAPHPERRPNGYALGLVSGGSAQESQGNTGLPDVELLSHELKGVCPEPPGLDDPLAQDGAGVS
5-hydroxytryptamine receptor 4 (Homo sapiens), sequence (Q13639 whole entry): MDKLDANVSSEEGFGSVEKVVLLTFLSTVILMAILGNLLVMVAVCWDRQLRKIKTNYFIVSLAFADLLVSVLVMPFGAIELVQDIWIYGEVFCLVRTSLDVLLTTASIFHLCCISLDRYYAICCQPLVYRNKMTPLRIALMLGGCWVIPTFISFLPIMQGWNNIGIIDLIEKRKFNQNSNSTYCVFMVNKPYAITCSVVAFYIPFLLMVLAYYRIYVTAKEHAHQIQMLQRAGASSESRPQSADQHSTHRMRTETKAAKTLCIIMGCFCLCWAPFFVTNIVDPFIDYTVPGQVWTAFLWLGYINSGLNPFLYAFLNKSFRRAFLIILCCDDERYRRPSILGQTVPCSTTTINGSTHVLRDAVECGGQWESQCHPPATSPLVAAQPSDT
5-hydroxytryptamine receptor 5A (Homo sapiens), sequence (P47898 whole entry): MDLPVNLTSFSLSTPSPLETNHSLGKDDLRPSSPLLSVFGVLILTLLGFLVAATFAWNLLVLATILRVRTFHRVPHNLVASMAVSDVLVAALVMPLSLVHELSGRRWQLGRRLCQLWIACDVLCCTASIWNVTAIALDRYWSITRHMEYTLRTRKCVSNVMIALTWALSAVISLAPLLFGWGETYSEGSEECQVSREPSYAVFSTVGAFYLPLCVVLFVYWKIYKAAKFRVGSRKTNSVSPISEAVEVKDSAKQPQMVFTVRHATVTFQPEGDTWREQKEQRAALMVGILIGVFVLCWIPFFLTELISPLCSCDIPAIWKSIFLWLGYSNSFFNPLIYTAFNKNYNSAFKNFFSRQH
5-hydroxytryptamine receptor 7 (Homo sapiens), sequence (P34969 whole entry): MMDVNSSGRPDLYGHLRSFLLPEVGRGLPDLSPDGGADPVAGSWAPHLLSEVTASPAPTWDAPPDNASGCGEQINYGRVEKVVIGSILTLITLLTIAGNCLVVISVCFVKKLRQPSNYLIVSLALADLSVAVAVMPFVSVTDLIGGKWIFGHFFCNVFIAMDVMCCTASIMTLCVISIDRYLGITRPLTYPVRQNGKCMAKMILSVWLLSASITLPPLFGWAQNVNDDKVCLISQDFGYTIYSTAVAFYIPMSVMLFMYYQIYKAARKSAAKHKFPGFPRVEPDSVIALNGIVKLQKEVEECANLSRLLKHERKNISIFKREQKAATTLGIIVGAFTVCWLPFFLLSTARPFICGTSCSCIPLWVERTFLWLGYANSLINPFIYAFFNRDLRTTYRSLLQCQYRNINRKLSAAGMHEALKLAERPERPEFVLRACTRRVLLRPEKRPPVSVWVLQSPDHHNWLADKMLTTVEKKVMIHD
T1 sequence (P41595 whole entry): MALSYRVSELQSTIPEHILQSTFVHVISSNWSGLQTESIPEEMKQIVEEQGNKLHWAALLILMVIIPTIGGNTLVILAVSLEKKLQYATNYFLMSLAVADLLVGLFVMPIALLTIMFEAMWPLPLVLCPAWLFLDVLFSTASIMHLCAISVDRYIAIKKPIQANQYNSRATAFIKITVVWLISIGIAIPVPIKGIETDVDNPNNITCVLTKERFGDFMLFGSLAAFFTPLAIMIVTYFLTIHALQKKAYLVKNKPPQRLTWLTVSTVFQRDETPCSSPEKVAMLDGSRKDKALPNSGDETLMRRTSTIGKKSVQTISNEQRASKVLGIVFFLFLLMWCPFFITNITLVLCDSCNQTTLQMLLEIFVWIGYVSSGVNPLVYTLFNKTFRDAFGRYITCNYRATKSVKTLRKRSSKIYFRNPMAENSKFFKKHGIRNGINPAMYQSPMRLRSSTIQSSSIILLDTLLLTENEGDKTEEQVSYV
5-hydroxytryptamine receptor 1D (Homo sapiens), sequence (P28221 whole entry): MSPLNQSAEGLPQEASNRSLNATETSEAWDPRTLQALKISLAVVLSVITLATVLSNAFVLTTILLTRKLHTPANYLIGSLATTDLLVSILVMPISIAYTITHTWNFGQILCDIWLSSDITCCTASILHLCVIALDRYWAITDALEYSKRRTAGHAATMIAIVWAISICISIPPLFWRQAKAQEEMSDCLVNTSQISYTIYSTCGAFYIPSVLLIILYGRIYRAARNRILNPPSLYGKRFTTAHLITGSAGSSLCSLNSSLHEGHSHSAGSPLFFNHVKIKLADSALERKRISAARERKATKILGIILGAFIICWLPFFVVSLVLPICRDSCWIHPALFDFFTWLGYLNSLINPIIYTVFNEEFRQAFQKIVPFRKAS
T3 sequence (P28223 whole entry): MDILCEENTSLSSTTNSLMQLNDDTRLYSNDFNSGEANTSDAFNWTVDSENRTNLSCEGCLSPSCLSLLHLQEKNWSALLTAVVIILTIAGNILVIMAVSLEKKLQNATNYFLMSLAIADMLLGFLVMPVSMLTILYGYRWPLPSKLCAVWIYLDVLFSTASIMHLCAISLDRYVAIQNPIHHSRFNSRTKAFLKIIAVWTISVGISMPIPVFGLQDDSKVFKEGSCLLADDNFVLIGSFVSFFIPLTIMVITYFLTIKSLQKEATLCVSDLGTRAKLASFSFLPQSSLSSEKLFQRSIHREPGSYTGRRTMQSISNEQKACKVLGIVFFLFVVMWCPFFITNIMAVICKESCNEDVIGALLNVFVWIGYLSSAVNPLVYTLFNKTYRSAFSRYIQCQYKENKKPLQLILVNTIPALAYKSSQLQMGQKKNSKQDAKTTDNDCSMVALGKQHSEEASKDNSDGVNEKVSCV
5-hydroxytryptamine receptor 1B (Homo sapiens), sequence (P28222 whole entry): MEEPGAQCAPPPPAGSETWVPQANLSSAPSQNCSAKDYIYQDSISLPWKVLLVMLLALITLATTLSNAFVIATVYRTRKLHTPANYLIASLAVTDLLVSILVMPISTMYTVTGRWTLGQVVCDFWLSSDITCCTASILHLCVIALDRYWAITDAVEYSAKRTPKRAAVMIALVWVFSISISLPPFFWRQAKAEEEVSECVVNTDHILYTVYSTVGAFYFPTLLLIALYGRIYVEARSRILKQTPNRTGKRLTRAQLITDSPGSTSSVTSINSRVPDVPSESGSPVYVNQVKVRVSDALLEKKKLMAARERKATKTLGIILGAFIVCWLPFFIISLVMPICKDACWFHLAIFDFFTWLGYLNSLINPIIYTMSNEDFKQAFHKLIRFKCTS
5-hydroxytryptamine receptor 6 (Homo sapiens), sequence (P50406 whole entry): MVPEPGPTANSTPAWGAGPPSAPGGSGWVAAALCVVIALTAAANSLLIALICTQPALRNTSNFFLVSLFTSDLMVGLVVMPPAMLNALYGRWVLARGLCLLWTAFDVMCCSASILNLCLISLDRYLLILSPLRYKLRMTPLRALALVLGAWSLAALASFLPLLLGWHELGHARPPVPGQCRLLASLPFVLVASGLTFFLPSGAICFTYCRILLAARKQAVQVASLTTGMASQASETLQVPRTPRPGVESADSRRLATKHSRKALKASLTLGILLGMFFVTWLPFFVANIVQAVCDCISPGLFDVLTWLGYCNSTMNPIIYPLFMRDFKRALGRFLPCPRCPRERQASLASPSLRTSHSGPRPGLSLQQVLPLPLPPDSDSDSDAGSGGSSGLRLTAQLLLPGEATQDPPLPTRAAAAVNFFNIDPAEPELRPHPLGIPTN

inhibition [1] | inhibition [2] | inhibition [3] | inhibition [4] | inhibition [5] | inhibition [6] | inhibition [7] | Ki [8] | inhibition [9] | inhibition [10] | inhibition [11] | inhibition [12] | Ki [13] | inhibition [14] | inhibition [15] | inhibition [16] | Ki [17] | Ki [18] | Ki [19] | Compound
< 50% | < 50% | < 10% | > 50% | 11% | < 10% | < 50% |  | < 50% | < 50% | < 10% | < 50% | > 10000 nM | < 50% | < 50% | < 50% |  |  |  | Fc1ccc(C#Cc2nc(NCc3cccc(Cl)c3)c3nc[nH]c3n2)cc1F
< 50% | < 50% | < 10% | > 50% | > 50% | < 10% | < 50% | 4800 nM | < 50% | < 50% | 11% | < 50% | > 10000 nM | < 50% | < 50% | < 50% | 8100 nM |  |  | CN(C)c1nc(Cl)nc2c1ncn2[C@H]1[C@H](O)[C@H](O)[C@]2(CO)C[C@H]12
< 50% | < 50% | < 10% | > 50% | > 50% | < 10% | < 50% | 2100 nM | < 50% | < 50% | 26% | < 50% | > 10000 nM | < 50% | < 50% | < 50% | 4300 nM | 1480 nM |  | CNC(=O)[C@@]12C[C@@H]1[C@@H](n1cnc3c(N(C)C)nc(Cl)nc31)[C@H](O)[C@@H]2O
< 50% | < 50% | 26% | > 50% | > 50% | < 10% | < 50% | 534 nM | < 50% | < 50% | 46% | < 50% | > 10000 nM | < 50% | < 50% | < 50% | 2310 nM |  |  | CC(=O)NCCCNC(=O)[C@@]12C[C@@H]1[C@@H](n1cnc3c(NC(C4CC4)C4CC4)nc(Cl)nc31)[C@H](O)[C@@H]2O
< 50% | < 50% | 20% | > 50% | > 50% | < 10% | < 50% | 332 nM | < 50% | < 50% |  | < 50% | > 10000 nM | < 50% | < 50% | < 50% | 1700 nM | 1650 nM | 397 nM | CC(=O)NCCNC(=O)[C@@]12C[C@@H]1[C@@H](n1cnc3c(NC(C4CC4)C4CC4)nc(Cl)nc31)[C@H](O)[C@@H]2O
< 50% | < 50% | < 10% | > 50% | > 50% | < 10% | Active | 4700 nM | < 50% | < 50% |  | < 50% | > 10000 nM | < 50% | < 50% | < 50% | 8000 nM | 1080 nM |  | CN(C)c1nc(Cl)nc2c1ncn2[C@H]1[C@H](O)[C@H](O)[C@]2(C(=O)O)C[C@H]12

Compound | inhibition [1] | inhibition [2] | inhibition [3] | inhibition [4] | inhibition [5] | inhibition [6] | inhibition [7] | Ki [8] | inhibition [9] | inhibition [10] | inhibition [11] | inhibition [12] | Ki [13] | inhibition [14] | inhibition [15] | inhibition [16] | Ki [17] | Ki [18] | Ki [19]
Clc1cccc(CNc2nc(Cl)nc3[nH]cnc23)c1 | < 50% | < 50% | 37% | > 50% | > 50% | 26% | < 50% | 2160 nM | < 50% | < 50% | 45% | < 50% | > 10000 nM | < 50% | < 50% | < 50% |  |  | 
